Results from patent US20230340011A1 (Asteroid Therapeutics, priority 2022, published 2023).

Experiments:
[1] = molecular target: SREBP-2 (Homo sapiens (Human), UniProt Q12772); assay: In vitro assay SREBP-2: PathHunter U2OS SREBP-2 Nuclear Translocation Cell Line, U18666A-stimulated; type: cell-based; settings: PathHunter U2OS SREBP-2 nuclear translocation cells, U18666A 10 μM, overnight (16 hours)
[2] = molecular target: LXRβ (Homo sapiens (Human), UniProt P55055); assay: In vitro assay LXRβ: PathHunter NHR CHO cells, LXRβ / Steroid Receptor Co-activator Peptide enzyme fragment complementation; type: cell-based; settings: PathHunter NHR CHO cells, full-length human LXRβ and SRCP, chemiluminescent signal; read-out: LXRβ PPI
How it was run: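 Enzyme fragment complementation read-out: CHO cells stably expressing ProLink-tagged full-length human LXRβ plus nuclear enzyme acceptor–SRCP fusion, seeded and held overnight at 37° C. Medium with charcoal-dextran filtered serum; final vehicle 1%. Chemiluminescence measured after signal generation.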

Sequence of LXRβ (P55055 whole entry, the tested form may be a part): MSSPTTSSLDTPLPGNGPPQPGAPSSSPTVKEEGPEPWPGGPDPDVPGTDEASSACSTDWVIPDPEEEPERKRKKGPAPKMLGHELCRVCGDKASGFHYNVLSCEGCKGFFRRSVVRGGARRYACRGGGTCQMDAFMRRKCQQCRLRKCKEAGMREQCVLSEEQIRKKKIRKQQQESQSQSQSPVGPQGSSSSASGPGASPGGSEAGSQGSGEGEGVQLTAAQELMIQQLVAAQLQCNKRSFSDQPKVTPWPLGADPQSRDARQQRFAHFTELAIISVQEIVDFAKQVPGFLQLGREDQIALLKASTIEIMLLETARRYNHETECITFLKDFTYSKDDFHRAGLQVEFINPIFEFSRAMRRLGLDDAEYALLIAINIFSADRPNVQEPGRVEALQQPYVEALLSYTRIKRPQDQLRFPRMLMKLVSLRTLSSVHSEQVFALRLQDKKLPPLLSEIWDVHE

Molecule C[C@H](CCC(=O)N1CCC[C@@H](O)C1)[C@H]1CC[C@H]2[C@@H]3CC=C4C[C@@H](O)CC[C@]4(C)[C@H]3CC[C@]12C [Example 104, (R)-4-((3S,8S,9S,10R,13R,14S,17R)-3-hydroxy-10,13-dimethyl-2,3,4,7,8,9,10,11,12,13,14,15,16,17-tetradecahydro-1H-cyclopenta[a]phenanthren-17-yl)-1-((R)-3-hydroxypiperidin-1-yl) pentan-1-one] has an IC50 [1] of under 0.25 µM and an EC50 [2] of 0.25 to 1 µM.

C[C@H](CCC(=O)N1CCC[C@@](C)(O)C1)[C@H]1CC[C@H]2[C@@H]3CC=C4C[C@@H](O)CC[C@]4(C)[C@H]3CC[C@]12C [Example 105, (R)-4-((3S,8S,9S,10R,13R,14S,17R)-3-hydroxy-10,13-dimethyl-2,3,4,7,8,9,10,11,12,13,14,15,16,17-tetradecahydro-1H-cyclopenta[a]phenanthren-17-yl)-1-((R)-3-hydroxy-3-methylpiperidin-1-yl) pentan-1-one] was tested, and the IC50 [1] was under 0.25 µM and the EC50 [2] was 1 to 10 µM.

For CC[C@@]1(O)CCCN(C(=O)CC[C@@H](C)[C@H]2CC[C@H]3[C@@H]4CC=C5C[C@@H](O)CC[C@]5(C)[C@H]4CC[C@]23C)C1 [Example 106, (4R)-1-(3-ethyl-3-hydroxypiperidin-1-yl)-4-((3S,8S,9S,10R,13R,14S,17R)-3-hydroxy-10,13-dimethyl-2,3,4,7,8,9,10,11,12,13,14,15,16,17-tetradecahydro-1H-cyclopenta[a]phenanthren-17-yl)pentan-1-one], the IC50 [1] was under 0.25 µM and the EC50 [2] was 0.25 to 1 µM.

Molecule C[C@H]1CCCN(C(=O)CC[C@@H](C)[C@H]2CC[C@H]3[C@@H]4CC=C5C[C@@H](O)CC[C@]5(C)[C@H]4CC[C@]23C)C1 [Example 110, (R)-4-((3S,8S,9S,10R,13R,14S,17R)-3-hydroxy-10,13-dimethyl-2,3,4,7,8,9,10,11,12,13,14,15,16,17-tetradecahydro-1H-cyclopenta[a]phenanthren-17-yl)-1-((S)-3-methylpiperidin-1-yl) pentan-1-one] has an IC50 [1] of under 0.25 µM and an EC50 [2] of 1 to 10 µM.

Molecule C[C@@H]1CCCN(C(=O)CC[C@@H](C)[C@H]2CC[C@H]3[C@@H]4CC=C5C[C@@H](O)CC[C@]5(C)[C@H]4CC[C@]23C)C1 [Example 111, (R)-4-((3S,8S,9S,10R,13R,14S,17R)-3-hydroxy-10,13-dimethyl-2,3,4,7,8,9,10,11,12,13,14,15,16,17-tetradecahydro-1H-cyclopenta[a]phenanthren-17-yl)-1-((R)-3-methylpiperidin-1-yl) pentan-1-one] has an IC50 [1] of under 0.25 µM and an EC50 [2] of 0.25 to 1 µM.

C[C@H](CCC(=O)N1CCC[C@@H]1C)[C@H]1CC[C@H]2[C@@H]3CC=C4C[C@@H](O)CC[C@]4(C)[C@H]3CC[C@]12C [Example 112, (R)-4-((3S,8S,9S,10R,13R,14S,17R)-3-hydroxy-10,13-dimethyl-2,3,4,7,8,9,10,11,12,13,14,15,16,17-tetradecahydro-1H-cyclopenta[a]phenanthren-17-yl)-1-((S)-2-methylpyrrolidin-1-yl)pentan-1-one] gave an IC50 [1] of under 0.25 µM and an EC50 [2] of 0.25 to 1 µM.

C[C@H](CCC(=O)N1CCC[C@H]1C)[C@H]1CC[C@H]2[C@@H]3CC=C4C[C@@H](O)CC[C@]4(C)[C@H]3CC[C@]12C [Example 113, (R)-4-((3S,8S,9S,10R,13R,14S,17R)-3-hydroxy-10,13-dimethyl-2,3,4,7,8,9,10,11,12,13,14,15,16,17-tetradecahydro-1H-cyclopenta[a]phenanthren-17-yl)-1-((R)-2-methylpyrrolidin-1-yl)pentan-1-one] showed an IC50 [1] of under 0.25 µM and an EC50 [2] of 0.25 to 1 µM.

C[C@H]1CCN(C(=O)CC[C@@H](C)[C@H]2CC[C@H]3[C@@H]4CC=C5C[C@@H](O)CC[C@]5(C)[C@H]4CC[C@]23C)C1 [Example 114, (R)-4-((3S,8S,9S,10R,13R,14S,17R)-3-hydroxy-10,13-dimethyl-2,3,4,7,8,9,10,11,12,13,14,15,16,17-tetradecahydro-1H-cyclopenta[a]phenanthren-17-yl)-1-((S)-3-methylpyrrolidin-1-yl)pentan-1-one] was tested, and the IC50 [1] was under 0.25 µM and the EC50 [2] was 0.25 to 1 µM.

In the case of C[C@@H]1CCN(C(=O)CC[C@@H](C)[C@H]2CC[C@H]3[C@@H]4CC=C5C[C@@H](O)CC[C@]5(C)[C@H]4CC[C@]23C)C1 [Example 115, (R)-4-((3S,8S,9S,10R,13R,14S,17R)-3-hydroxy-10,13-dimethyl-2,3,4,7,8,9,10,11,12,13,14,15,16,17-tetradecahydro-1H-cyclopenta[a]phenanthren-17-yl)-1-((R)-3-methylpyrrolidin-1-yl)pentan-1-one], the IC50 [1] is reported as under 0.25 µM and the EC50 [2] is reported as 0.25 to 1 µM.

C[C@H](CCC(=O)N(C)C)[C@H]1CC[C@H]2[C@@H]3CC=C4C[C@@](C)(O)CC[C@]4(C)[C@H]3CC[C@]12C [Example 120, (R)-4-((3S,8S,9S,10R,13R,14S,17R)-3-hydroxy-3,10,13-trimethyl-2,3,4,7,8,9,10,11,12,13,14,15,16,17-tetradecahydro-1H-cyclopenta [a]phenanthren-17-yl) -N,N-dimethylpentanamide] gave an IC50 [1] of 1 to 10 µM and an EC50 [2] of over 10 µM.

Work on C[C@H](CCC(=O)N(C)C)[C@H]1CC[C@H]2[C@@H]3CC=C4C[C@](C)(O)CC[C@]4(C)[C@H]3CC[C@]12C [Example 121, (R)-4-((3R,8S,9S,10R,13R,14S,17R)-3-hydroxy-3,10,13-trimethyl-2,3,4,7,8,9,10,11,12,13,14,15,16,17-tetradecahydro-1H-cyclopenta [a]phenanthren-17-yl) -N,N-dimethylpentanamide] yielded an IC50 [1] of over 10 µM and an EC50 [2] of 1 to 10 µM.

Molecule C[C@H](CCc1ccccn1)[C@H]1CC[C@H]2[C@@H]3CC=C4C[C@@H](O)CC[C@]4(C)[C@H]3CC[C@]12C [Example 124, (3S,8S,9S,10R,13R,14S,17R)-10,13-dimethyl-17-((R)-4-(pyridin-2-yl)butan-2-yl)-2,3,4,7,8,9,10,11,12,13,14,15,16,17-tetradecahydro-1H-cyclopenta[a]phenanthren-3-ol] has an IC50 [1] of under 0.25 µM and an EC50 [2] of 0.25 to 1 µM.

C[C@H](CCC(=O)N(C)C)[C@H]1CC[C@H]2[C@@H]3CC=C4C[C@@H](F)CC[C@]4(C)[C@H]3CC[C@]12C [Example 126, (R)-4-((3S,8S,9S,10R,13R,14S,17R)-3-fluoro-10,13-dimethyl-2,3,4,7,8,9,10,11,12,13,14,15,16,17-tetradecahydro-1H-cyclopenta[a]phenanthren-17-yl)-N,N-dimethylpentanamide] was tested, and the IC50 [1] was over 10 µM and the EC50 [2] was over 10 µM.

C[C@H](CCC(=O)N(C)C)[C@H]1CC[C@H]2[C@@H]3CC=C4CC(F)(F)CC[C@]4(C)[C@H]3CC[C@]12C [Example 127, (R)-4-((8S,9S,10R,13R,14S,17R)-3,3-difluoro-10,13-dimethyl-2,3,4,7,8,9,10,11,12,13,14,15,16,17-tetradecahydro-1H-cyclopenta[a]phenanthren-17-yl) -N,N-dimethylpentanamide] gave an IC50 [1] of over 10 µM and an EC50 [2] of over 10 µM.

Work on Cc1ccc(CC[C@@H](C)[C@H]2CC[C@H]3[C@@H]4CC=C5C[C@@H](O)CC[C@]5(C)[C@H]4CC[C@]23C)nc1 [Example 131, (3S,8S,9S,10R,13R,14S,17R)-10,13-dimethyl-17-((R)-4-(5-methylpyridin-2-yl)butan-2-yl)-2,3,4,7,8,9,10,11,12,13,14,15,16,17-tetradecahydro-1H-cyclopenta[a]phenanthren-3-ol] yielded an IC50 [1] of 0.25 to 1 µM and an EC50 [2] of over 10 µM.

Work on C[C@H](CCc1ncccn1)[C@H]1CC[C@H]2[C@@H]3CC=C4C[C@@H](O)CC[C@]4(C)[C@H]3CC[C@]12C [Example 133, (1R,3aS,3bS,7S,9aR,9bS,11aR)-9a,11a-dimethyl-1-[(2R)-4-(pyrimidin-2-yl)butan-2-yl]-1H,2H,3H,3aH,3bH,4H,6H,7H,8H,9H,9aH,9bH,10H,11H,11aH-cyclopenta[a]phenanthren-7-ol] yielded an IC50 [1] of 0.25 to 1 µM and an EC50 [2] of 0.25 to 1 µM.

With C[C@H](CCc1cccnn1)[C@H]1CC[C@H]2[C@@H]3CC=C4C[C@@H](O)CC[C@]4(C)[C@H]3CC[C@]12C [Example 134, (1R,3aS,3bS,7S,9aR,9bS,11aR)-9a,11a-dimethyl-1-[(2R)-4-(pyridazin-3-yl)butan-2-yl]-1H,2H,3H,3aH,3bH,4H,6H,7H,8H,9H,9aH,9bH,10H,11H,11aH-cyclopenta[a]phenanthren-7-ol] the IC50 [1] was over 10 µM and the EC50 [2] was 0.25 to 1 µM.

Work on C[C@H](CCc1cnccn1)[C@H]1CC[C@H]2[C@@H]3CC=C4C[C@@H](O)CC[C@]4(C)[C@H]3CC[C@]12C [Example 136, (3S,8S,9S,10R,13R,14S,17R)-10,13-dimethyl-17-((R)-4-(pyrazin-2-yl)butan-2-yl)-2,3,4,7,8,9,10,11,12,13,14,15,16,17-tetradecahydro-1H-cyclopenta[a]phenanthren-3-ol] yielded an IC50 [1] of under 0.25 µM and an EC50 [2] of 0.25 to 1 µM.

C[C@H](CCc1ncco1)[C@H]1CC[C@H]2[C@@H]3CC=C4C[C@@H](O)CC[C@]4(C)[C@H]3CC[C@]12C [Example 137, (3S,8S,9S,10R,13R,14S,17R)-10,13-dimethyl-17-((R)-4-(oxazol-2-yl)butan-2-yl)-2,3,4,7,8,9,10,11,12,13,14,15,16,17-tetradecahydro-1H-cyclopenta[a]phenanthren-3-ol] gave an IC50 [1] of 0.25 to 1 µM and an EC50 [2] of 1 to 10 µM.

C=CCN1C[C@@H]2CCN(C(=O)CC[C@@H](C)[C@H]3CC[C@H]4[C@@H]5CC=C6C[C@@H](O)CC[C@]6(C)[C@H]5CC[C@]34C)[C@@H]2C1 [Example 139, (R)-1-((3aS,6aS)-5-allylhexahydropyrrolo[3,4-b]pyrrol-1(2H)-yl)-4-((3S,8S,9S,10R,13R,14S,17R)-3-hydroxy-10,13-dimethyl-2,3,4,7,8,9,10,11,12,13,14,15,16,17-tetradecahydro-1H-cyclopenta[a]phenanthren-17-yl)pentan-1-one] showed an IC50 [1] of 0.25 to 1 µM and an EC50 [2] of over 10 µM.
